Laboratory results from publication PMC7942396, “Drug Repurposing Screen for Compounds Inhibiting the Cytopathic Effect of SARS-CoV-2” (Frontiers in Pharmacology, 2021).
Like-named read-outs stand apart in the source and are kept apart here. Where a SMILES comes first, the peptide text is derived from it. The star is where a group is joined. Cbz = O=C(OCc1ccccc1)*; CH2Cl = ClC*

Legend:
[1] = tested on: SARS-CoV-2 (USA_WA1/2020); experiment: microbe, parasite or virus in culture; assay type: cell-based; conditions: for EC50: read-out: CPE EC50
Vero E6 cells = Vero E6 cells without virus; for CC50: read-out: Cytotox CC50
[2] = SARS-CoV-2 CPE assay, Vero E6 cells, confirmed anti-SARS-CoV-2 compounds
[3] = SARS-CoV-2 CPE assay, Vero E6 cells, efficacy
[4] = SARS-CoV-2 CPE assay, Vero E6 cells
[5] = […], DMSO 0%, no-virus control 100%, hit confirmation

| Compound | EC50 [1, 2] [µM] | CPE % Efficacy [1, 3] [%] | % Cytotox (Vero E6 cells; cytotoxicity counter-assay) [%] | CC50 (Vero E6 cells; cytotoxicity counter-assay) [µM] | also measured |
| --- | --- | --- | --- | --- | --- |
| C[C@H](CCC(=O)O)C[C@H](C)C[C@H](C)C(=O)/C=C(\O)[C@H](C)C[C@H](C)C/C=C/[C@@H](C)[C@@H](O)[C@@H](C)[C@@H](O)C[C@@H]1CC[C@@](C)([C@H]2CC[C@@](C)([C@@H](C)O)O2)O1 [Ionomycin(Calciumsalt)] | 7.8 | 90.4 | 69.7 | 6.95 |  |
| Cn1cc(-c2ccncc2)c(-c2ccc(OCc3ccc4ccccc4n3)cc2)n1 [MP-10] | 4.47 | 31.1 | 85.1 |  |  |
| CO[C@@H]1[C@@H](O[C@@H]2O[C@H](C)[C@@H](O[C@H]3C[C@@](C)(O)[C@@H](O)[C@H](C)O3)[C@H](N(C)C)[C@H]2O)[C@@H](CC=O)C[C@@H](C)[C@@H](O[C@H]2CC[C@H](N(C)C)[C@@H](C)O2)/C=C/C=C/C[C@@H](C)OC(=O)C[C@H]1OC(C)=O [Spiramycin II] |  |  | 0.0 |  | CPE % Efficacy [1, 4]: 33.4%; EC50 [1, 4]: 14.1 µM |
| O=C(CCC1CCN(Cc2ccccc2)CC1)c1ccc2c(c1)NCCCC2.O=C(O)/C=C/C(=O)O [Zanapezil fumerate] | 11.2 | 63.3 | 0.0 |  |  |
| COc1ccc(S(=O)(=O)N(CCO)c2ccccc2CN(C)C/C=C/c2ccc(Cl)cc2)cc1 [KN-93] | 11.2 | 69.0 | 34.4 | 11.2 |  |
| COc1ccc(-c2cc(C(O)C3CCCCN3)c3ccccc3n2)cc1.Cl.Cl (stereo not drawn) [NSC-23925] | 5.62 | 40.3 | 49.3 | 10 |  |
| COc1cc2ncnc(Sc3nnc(C)s3)c2cc1OC [SKLB1002] | 3.55 | 73.0 | 34.8 | 7.08 |  |
| NC(=O)c1ccccc1Nc1ccnc(Nc2cccc(O)c2)n1 [DB-07268] | 10 | 52.8 | 40.9 | 1 |  |
| Cn1cc(-c2ccc(-c3cncc(Cl)c3N3CCC4(CCNC4=O)CC3)cc2)cn1 [CCT-251545] |  |  | 0.0 |  | CPE % Efficacy [1, 4]: 65.2%; EC50 [1, 4]: 14.1 µM |
| CCC[C@@H](NC(=O)N1C(=O)C(CC)(CC)[C@@H]1Oc1ccc(C(=O)N2CCN(C)CC2)cc1)c1ccc2c(c1)OCO2 [DMP 777, reference compound] |  |  |  |  | CPE % Efficacy [1, 5]: 92.5%; EC50 [1]: 10 µM; % Cytotox (Vero E6 cells; 72 h): <30% |
| CS(=O)(=O)NCC1CCC(Nc2nc3c(s2)CCSc2ccccc2-3)CC1 (stereo not drawn) [LU AA33810] |  |  | 0.0 |  | CPE % Efficacy [1, 4]: 48.3%; EC50 [1, 4]: 12.6 µM |
| Cc1nc2ccc(Oc3ccc(F)cc3)cc2c(=O)n1C[C@H]1CCCN(C(C)C)C1 [YIL 781] |  |  | 0.0 |  | CPE % Efficacy [1, 4]: 53.5%; EC50 [1, 4]: 11.2 µM |
| CC(C)(C)c1ccc(CN2CCN(C(c3ccccc3)c3ccc(Cl)cc3)CC2)cc1.Cl.Cl (stereo not drawn) [Buclizine HCl] |  |  | 0.0 |  | CPE % Efficacy [1, 4]: 86.2%; EC50 [1, 4]: 14.1 µM |
| Nc1nc2c(c(N3CC[C@@H](N)C3)n1)CCCc1ccccc1-2 [A 943931] | 11.2 | 104.3 | 34.8 | 12.6 |  |
| Cl.Oc1ccc2c3c1O[C@H]1c4[nH]c5ccc(N=C=S)cc5c4C[C@@]4(O)[C@@H](C2)N(CC2CC2)CC[C@]314 [Naltrindole isothiocyanate hydrochloride, reference compound] |  |  |  |  | CPE % Efficacy [1, 5]: 114.7%; EC50 [1]: 10 µM; % Cytotox (Vero E6 cells; 72 h): <30% |
| O=S(=O)(c1cccc2c(I)cccc12)N1CCCNCC1 [ML-7] |  |  | 20.3 | 19.9 | CPE % Efficacy [1, 4]: 36.2%; EC50 [1, 4]: 12.6 µM |
| O=C(/C=C/c1ccc(Cl)cc1)N1CCC2(CC1)CN(Cc1ccc(Cl)c(Cl)c1)C(=O)O2 [GSK-682753A] |  |  | 38.6 | 12.6 | CPE % Efficacy [1, 4]: 67.7%; EC50 [1, 4]: 11.2 µM |
| COc1ccccc1Nc1nc(-c2sc(NC(C)=O)nc2C)cs1 [JNJ0966] | 11.2 | 38.6 | 61.5 | 11.2 |  |
| Cc1cc(C)c(CNC(=O)c2cc(-c3ccc(N4CCN(C)CC4)nc3)cc3c2c(C)cn3C(C)C)c(=O)[nH]1 [GSK-503?EZH2 inhibitor] |  |  | 0.0 |  | CPE % Efficacy [1, 4]: 111.9%; EC50 [1, 4]: 12.6 µM |
| CC1(CN2CCC(n3c(=O)[nH]c4ccccc43)CC2)OCc2ccccc2-n2cccc21.O=C(O)/C=C\C(=O)O (stereo not drawn) [Zaldaride maleate] | 11.2 | 81.7 | 0.0 |  |  |
| CC/C(=C(/CC)c1ccc(O)c(CN(CC)CC)c1)c1ccc(O)c(CN(CC)CC)c1 [NSC 33994, reference compound] |  |  |  |  | CPE % Efficacy [1, 5]: 107.6%; EC50 [1]: 8.9 µM; % Cytotox (Vero E6 cells; 72 h): <30% |
| N#Cc1c(C2CCNCC2)cc(-c2c(O)cccc2OCC2CC2)nc1N [IKK-2 inhibitor VIII, reference compound] |  |  |  |  | CPE % Efficacy [1, 5]: 91.7%; EC50 [1]: 7.1 µM; % Cytotox (Vero E6 cells; 72 h): <30% |

| Compound | EC50 [1, 2] [µM] | CPE % Efficacy [1, 3] [%] | % Cytotox (Vero E6 cells; cytotoxicity counter-assay) [%] | CC50 (Vero E6 cells; cytotoxicity counter-assay) [µM] | also measured |
| --- | --- | --- | --- | --- | --- |
| Cc1cccc2c1CC[C@H](CN1CCC(c3c(Cl)cccc3Cl)CC1)C[C@@H]2O.Cl [SB 612111 hydrochloride] | 8.91 | 53.8 | 59.7 | 12.6 |  |
| COc1ccc(NC(=O)c2ccc(-c3ccc(-c4nnc(C)o4)cc3C)cc2)cc1N1CCN(C)CC1 [GMC 2-29, reference compound] |  |  |  |  | CPE % Efficacy [1, 5]: 117.2%; EC50 [1]: 7.9 µM; % Cytotox (Vero E6 cells; 72 h): <30% |
| C[C@@H]1CN(CC(=O)N2CC(C)(C)c3ncc(Cc4ccc(F)cc4)cc32)[C@@H](CN2CCOC[C@H]2C)CN1 [AT-IAP] |  |  | 0.0 |  | CPE % Efficacy [1, 4]: 56.2% |
| CC(C)C[C@H](NC(=O)CNC(=O)OCc1ccccc1)C(=O)N[C@@H](Cc1ccccc1)C(=O)CCl [Z-Gly-Leu-Phe-chloromethyl ketone, reference compound] (Cbz-Gly-Leu-Phe-CH2Cl) |  |  |  |  | CPE % Efficacy [1, 5]: 87.2%; EC50 [1]: 1.3 µM; % Cytotox (Vero E6 cells; 72 h): <30% |
| CCCOC(C(=O)OC1CCN(C)CC1)(c1ccccc1)c1ccccc1.Cl [Propiverine hydrochloride] | 11.2 | 44.6 | 0.0 |  |  |
| HBX 19818 | 7.94 | 80.9 | 39.1 |  |  |
| CC(C)(C)c1ccc(C(=O)Nc2cc(Cl)c(Br)cc2C(=O)O)cc1 [NCGC00386831] | 11.2 | 32.0 | 78.8 | 10 |  |
| CC(C)C[C@H]1C(=O)O[C@H](Cc2ccc(N3CCOCC3)cc2)C(=O)N(C)[C@@H](CC(C)C)C(=O)O[C@H](C)C(=O)N(C)[C@@H](CC(C)C)C(=O)O[C@H](Cc2ccc(N3CCOCC3)cc2)C(=O)N(C)[C@@H](CC(C)C)C(=O)O[C@H](C)C(=O)N1C [Emodepside] | 6.31 | 74.5 | 32.2 | 8.91 |  |
| O=S(=O)(c1cccc2c(Cl)cccc12)N1CCCNCC1 [ML-9] |  |  | 23.3 | 11.2 | CPE % Efficacy [1, 4]: 91.0%; EC50 [1, 4]: 12.6 µM |
| GSK 9027 |  |  | 24.3 |  | CPE % Efficacy [1, 4]: 104.1%; EC50 [1, 4]: 12.6 µM |
| COc1cc2nc(-c3ccc(N4CCN(C)CC4)cc3)nc(NCCN3CCOCC3)c2cc1OC [CPG-52364] | 11.2 | 63.1 | 41.6 | 10 |  |
| COc1ccc(C(C)(C)C)cc1CN[C@H]1C2CCN(CC2)[C@H]1C(c1ccccc1)c1ccccc1 [Maropitant] | 3.55 | 83.7 | 108.2 |  |  |
| COc1cc2nc(N3CCCCC3)nc(NC3CCN(C)CC3)c2cc1OC [NCGC00185859] | 3.55 | 94.8 | 69.3 | 10 |  |
| COc1cc2nc(N3CCC(N4CCCCC4)CC3)nc(NC3CCCCCC3)c2cc1OC.Cl.Cl [C 021 dihydrochloride] | 3.55 | 79.7 | 108.9 | 7.08 |  |
| COc1cc2nc(N3CCCCC3)nc(NC3CCN(Cc4ccccc4)CC3)c2cc1OC [NCGC00185849] | 3.98 | 66.6 | 110.3 | 10 |  |
| Cc1c(NC(=O)OC[C@@H]2COCCN2)cn2ncnc(Nc3ccc4c(cnn4Cc4cccc(F)c4)c3)c12 [AC480 (BMS-599626)] | 11.2 | 62.3 | 67.2 | 12.6 |  |
| COc1ccccc1OCCNCC(O)COc1cccc2[nH]c3ccccc3c12.O=C(O)C(O)C(O)C(=O)O (stereo not drawn) [Carvedilol tartrate] | 11.2 | 101.1 | 12.7 | 11.2 |  |
| Cc1c(C(=O)Nc2cccc(C(F)(F)F)c2)cc(-c2ccccc2)n1CCCN1CCOCC1 [HC-067047] | 10 | 64.2 | 45.7 |  |  |
| Cc1cccc(Nc2nc(-c3ccncc3)cs2)c1 [STF-62247, reference compound] |  |  |  |  | Shape of concentration-response in the CPE assay ([1]; Figure 3): bell-shaped concentration-responses due to cytotoxicity; CPE % Efficacy [1, 5]: 107.1%; EC50 [1]: 1.1 µM; CC50 (Vero E6 cells; 72 h): 11.2 µM |
| C[C@H]1CC[C@@]2(OC1)O[C@H]1CC3[C@@H]4CC[C@@H]5C[C@@H](O[C@@H]6O[C@H](CO)[C@@H](O[C@@H]7O[C@H](CO[C@@H]8OC[C@@H](O)[C@H](O)[C@H]8O)[C@@H](O[C@@H]8O[C@H](CO)[C@H](O)[C@H](O)[C@H]8O)[C@H](O)[C@H]7O)[C@H](O)[C@H]6O)CC[C@]5(C)C4CC[C@]3(C)[C@H]1[C@@H]2C (stereo partly drawn) [NCGC00385658] | 3.03 | 68.4 | 78.8 | 3.4 |  |
| COc1ccc(CCNCc2ccc(OC)c3ccccc23)cc1 [SBI-0087702] | 11.2 | 106.7 | 24.6 | 7.08 |  |
